Measured values reported in patent publication US20260068882A1, “ARTHROPOD CONTROLLING COMPOSITION” (Firmenich SA, priority 2019, published 2026).

Experiments:
Aedes aegypti = test: In vitro Warm Body assay, mosquitoes landing on treated warm body; type: in vivo; conditions: for reduction of landing: 0.0016% (Table 7)
Outline: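 Adapted Warm Body assay with host-seeking, non-blood-fed, sugar-fed A. aegypti Rockefeller females aged 5–10 days (10–12 days in one set); cages held 30 (or 25) females at 150 lux. Landings were counted automatically. Doses in ethanol were 0.0016%, 0.04% and 1% in triplicate, or a single replicate across 0.0016–1%.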

Ixodes ricinus = test: In vitro Warm Plate Assay for ticks; type: in vivo; conditions: for percentage of ticks affected overtime / ticks' repellency overtime (in words): 20% (w/w) in ethanol; for ticks' repellency overtime (in words): Table 14; for pest or weed control at 0.0016 % / pest or weed control at 0.0053 % / pest or weed control at 0.008 % / pest or weed control at 0.0119 % / pest or weed control at 0.0178 % / pest or weed control at 0.0267 % / pest or weed control at 0.04 % / pest or weed control at 0.0598 % / pest or weed control at 0.089 % / pest or weed control at 0.2 % / pest or weed control at 0.447 % / pest or weed control at 1 %: Ixodes ricinus, read-out: percentage of ticks affected on the Warm Plate; for pest or weed control at 0.0016 %: 0.0016% in ethanol (Table 12); for pest or weed control at 0.0053 %: 0.0053% in ethanol (Table 12); for pest or weed control at 0.008 %: 0.008% in ethanol (Table 12); for pest or weed control at 0.0119 %: 0.0119% in ethanol (Table 12); for pest or weed control at 0.0178 %: 0.0178% in ethanol (Table 12); for pest or weed control at 0.0267 %: 0.0267% in ethanol (Table 12); for pest or weed control at 0.04 %: 0.04% in ethanol (Table 12); for pest or weed control at 0.0598 %: 0.0598% in ethanol (Table 12); for pest or weed control at 0.089 %: 0.089% in ethanol (Table 12); for pest or weed control at 0.2 %: 0.2% in ethanol (Table 12); for pest or weed control at 0.447 %: 0.447% in ethanol (Table 12); for pest or weed control at 1 %: 1% in ethanol (Table 12); for ticks affected: dose of 0.598%
Method: Repellent efficacy of the different compounds was assessed against the sheep tick, Ixodes ricinus. I. ricinus is one of the recommended model organisms mentioned by the Guidance on the European Biological Products Regulation [Vol II, Efficacy-Assessment & Evaluation (Parts B+C), v. 3.0, April 2018]. Observations of repellent efficacy were made on last stage nymphs.
The repellent efficacy was assessed using the protocol of the in-vitro Warm Plate Assay as defined in Kröber T, Bourquin M, Guerin P M. A standardized in vivo and in vitro test method for evaluating tick repellents. Pesticide Biochemistry and Physiology. 2013; 107 (2): 160-168.].
The mean±SD number of ticks Ixodes ricinus walking down (affected), falling (affected) or walking-up (non affected) from the warm plate treated with ethanol, N,N-diethyl-3-methylbenzamide, (2,5-dimethyl-2,3-dihydro-1H-inden-2yl)methanol (Ingredient 2) or (2,4,6-trimethyl-2,3-dihydro-1H-inden-2-yl)methanol (Ingredient 1) diluted in ethanol at 0.4 mg/ml and 10 mg/mL was assessed on n groups of 12 ticks (n=2-5).
In this in-vitro assay, the percentage of ticks Ixodes ricinus affected by the stimulus loaded on the warm plate was measured in order to assess the repellency effect. Twelve ticks were assessed per concentrations that goes from 0.0016% up to 1% in ethanol.
Using the same in-vitro setup, the effect on ticks behavior (n≥12) of different stimuli diluted in ethanol at 20% (w/w) was assessed overtime.

[1] = 0.0016% in ethanol (Table 7, one replicate)
[2] = 0.008% in ethanol (Table 7, one replicate)
[3] = 0.0119% in ethanol (Table 7, one replicate)
[4] = 0.04% in ethanol (Table 7, one replicate)
[5] = 0.0598% in ethanol (Table 7, one replicate)
[6] = 0.2% in ethanol (Table 7, one replicate)
[7] = 1% in ethanol (Table 7, one replicate)

CC1CCC(C(C)(C)O)C(O)C1 (stereo not drawn) [PMD, 2-(2-hydroxypropan-2-yl)-5-methylcyclohexan-1-ol, reference compound]
reduction of landing (Aedes aegypti): 11%
number of mosquitoes landed on the Warm Body (Aedes aegypti; [1]): 58
number of mosquitoes landed on the Warm Body (Aedes aegypti; [2]): 40
number of mosquitoes landed on the Warm Body (Aedes aegypti; [3]): 36
number of mosquitoes landed on the Warm Body (Aedes aegypti; [4]): 8
number of mosquitoes landed on the Warm Body (Aedes aegypti; [5]): 1
number of mosquitoes landed on the Warm Body (Aedes aegypti; [6]): 1
number of mosquitoes landed on the Warm Body (Aedes aegypti; [7]): 0
percentage of ticks affected overtime (Ixodes ricinus; 0.25 h post-application): 42%
percentage of ticks affected overtime (Ixodes ricinus; 0.5 h post-application): 42%
percentage of ticks affected overtime (Ixodes ricinus; 1 h post-application): 83%
percentage of ticks affected overtime (Ixodes ricinus; 2 h post-application): 50%
percentage of ticks affected overtime (Ixodes ricinus; 4 h post-application): 8%
percentage of ticks affected overtime (Ixodes ricinus; 6 h post-application): 17%
ticks' repellency overtime (in words) (Ixodes ricinus): not efficient during these first time points
pest or weed control at 0.0016 % (Ixodes ricinus): 0%
pest or weed control at 0.0053 % (Ixodes ricinus): 12%
pest or weed control at 0.008 % (Ixodes ricinus): 4%
pest or weed control at 0.0119 % (Ixodes ricinus): 4%
pest or weed control at 0.0178 % (Ixodes ricinus): 4%
pest or weed control at 0.0267 % (Ixodes ricinus): 0%
pest or weed control at 0.04 % (Ixodes ricinus): 12%
pest or weed control at 0.0598 % (Ixodes ricinus): 19%
pest or weed control at 0.089 % (Ixodes ricinus): 42%
pest or weed control at 0.2 % (Ixodes ricinus): 84%
pest or weed control at 0.447 % (Ixodes ricinus): 96%
pest or weed control at 1 % (Ixodes ricinus): 96%
ticks affected (Ixodes ricinus): 19%

c1ccc2c(c1)CC1COCOC21 (stereo not drawn) [ingredient #3, 4,4A,5,9B-tetrahydro-indeno[1,2-D]-1,3-dioxin]
reduction of landing (Aedes aegypti): 5%
number of mosquitoes landed on the Warm Body (Aedes aegypti; 0.0016% in ethanol (Table 6)): 76
number of mosquitoes landed on the Warm Body (Aedes aegypti; [1]): 76
number of mosquitoes landed on the Warm Body (Aedes aegypti; [2]): 61
number of mosquitoes landed on the Warm Body (Aedes aegypti; [3]): 42
number of mosquitoes landed on the Warm Body (Aedes aegypti; 0.04% in ethanol (Table 6)): 6
number of mosquitoes landed on the Warm Body (Aedes aegypti; [4]): 6
number of mosquitoes landed on the Warm Body (Aedes aegypti; [5]): 4
number of mosquitoes landed on the Warm Body (Aedes aegypti; [6]): 0
number of mosquitoes landed on the Warm Body (Aedes aegypti; 0.447% in ethanol (Table 7, one replicate)): 2
number of mosquitoes landed on the Warm Body (Aedes aegypti; 1% in ethanol (Table 6)): 2
number of mosquitoes landed on the Warm Body (Aedes aegypti; [7]): 2
percentage of ticks being affected (Ixodes ricinus; 0.00032% (Table 9)): 0%
percentage of ticks being affected (Ixodes ricinus; 0.00071% (Table 9)): 8%
percentage of ticks being affected (Ixodes ricinus; 0.0016% (Table 9)): 0%
percentage of ticks being affected (Ixodes ricinus; 0.00357% (Table 9)): 0%
percentage of ticks being affected (Ixodes ricinus; 0.0053% (Table 9)): 0%
percentage of ticks being affected (Ixodes ricinus; 0.008% (Table 9)): 0%
percentage of ticks being affected (Ixodes ricinus; 0.0119% (Table 9)): 0%
percentage of ticks being affected (Ixodes ricinus; 0.0178% (Table 9)): 0%
percentage of ticks being affected (Ixodes ricinus; 0.0267% (Table 9)): 0%
percentage of ticks being affected (Ixodes ricinus; 0.04% (Table 9)): 13%
percentage of ticks being affected (Ixodes ricinus; 0.0598% (Table 9)): 6%
percentage of ticks being affected (Ixodes ricinus; 0.089% (Table 9)): 0%
percentage of ticks being affected (Ixodes ricinus; 0.2% (Table 9)): 24%
percentage of ticks being affected (Ixodes ricinus; 0.447% (Table 9)): 67%
percentage of ticks being affected (Ixodes ricinus; 1% (Table 9)): 92%
percentage of ticks affected overtime (Ixodes ricinus; 0.25 h post-application): 100%
percentage of ticks affected overtime (Ixodes ricinus; 0.5 h post-application): 92%
percentage of ticks affected overtime (Ixodes ricinus; 1 h post-application): 8%
percentage of ticks affected overtime (Ixodes ricinus; 2 h post-application): 17%
percentage of ticks affected overtime (Ixodes ricinus; 4 h post-application): 15%
percentage of ticks affected overtime (Ixodes ricinus; 6 h post-application): 33%
ticks' repellency overtime (in words) (Ixodes ricinus): very effective at the first time points
pest or weed control at 0.0016 % (Ixodes ricinus): 0%
pest or weed control at 0.0053 % (Ixodes ricinus): 0%
pest or weed control at 0.008 % (Ixodes ricinus): 0%
pest or weed control at 0.0119 % (Ixodes ricinus): 0%
pest or weed control at 0.0178 % (Ixodes ricinus): 0%
pest or weed control at 0.0267 % (Ixodes ricinus): 0%
pest or weed control at 0.04 % (Ixodes ricinus): 13%
pest or weed control at 0.0598 % (Ixodes ricinus): 6%
pest or weed control at 0.089 % (Ixodes ricinus): 0%
pest or weed control at 0.2 % (Ixodes ricinus): 24%
pest or weed control at 0.447 % (Ixodes ricinus): 67%
pest or weed control at 1 % (Ixodes ricinus): 92%
ticks affected (Ixodes ricinus): 6%
